In US10780094B2, “Use of carbonic anhydrase inhibitors for treatment of neurological and psychiatric disorders” (New York University, priority 2016, dated 2020):

Columns and labels:
[1] = tested on: Normal Human Astrocytes; experiment: Cell Death ELISAplus, Aβ-induced apoptosis (fragmented nucleosomes); format: cell-based; settings: 1 day
Experimental: The extent of apoptosis caused by Aβ in the presence or absence of MTZ was assessed by quantitation of nucleosome formation using Cell Death ELISA^plus (Roche Applied Science, Indianapolis, Ind.). Briefly, after incubation with the peptides, plates were centrifuged in a Beckman J-6B centrifuge (10 min; 1,000 rpm), cells lysed, and DNA-histone complexes (nucleosomes) quantitated by Cell Death ELISA, as previously described (Fossati et al., 2010).

[2] = target: T1, Aβ42 and Aβ40-Q22 (Homo sapiens, UniProt P05067, E693Q); experiment: Native gel electrophoresis and Western blot of Aβ aggregation species; settings: presence or absence of the CAI; 1 hour, 1 day, 3 days
T1 construct: purchased James I. Elliott at Yale University (custom chemical peptide synthesis)
Experimental: Electrophoretic analysis for assessment of peptide aggregation in the presence or absence of MTZ was performed under native conditions using 5-30% gradient polyacrylamide gels, in absence of SDS, using 25 mM Tris/glycine, pH 8.8, as running buffer, as previously described (Fossati et al., 2010). Aβ oligomerization patterns were visualized by subsequent WB analysis. Briefly, proteins were electrotransferred to nitrocellulose membranes ([…] pore size; Hybond-ECL, GE Healthcare Life Sciences, Piscataway, N.J.) at 400 mA for 2.5 h, using 10 mM 3-cyclohexylamino-1-propanesulfonic acid (CAPS; Sigma) buffer, pH 11.0, containing 10% (v/v) methanol. After blocking with 5% nonfat milk in TBS containing 0.1% Tween 20 (TBST), membranes were immunoreacted with a combination of mouse monoclonal anti-Aβ antibodies 4G8 (epitope: residues Aβ18-22) and 6E10 (epitope: residues Aβ3-8), both from Covance (Princeton, N.J.), at 1:3000 dilution each, followed by HRP-labeled anti-mouse IgG and ECL chemistry (Fossati et al., 2010).

[3] = tested on: caspase 3/7 in glial cells; experiment: Active caspase 3 staining and Caspase-Glo 3/7 activity after Aβ challenge; format: cell-based, human; settings: Aβ co-incubated with MTZ at both concentrations (100, 300 μM); 24 hours
Experimental: (§1) Caspase 9 and caspase 3/7 activation was measured by luminescent assays (Caspase-Glo 9 and caspase-Glo 3/7, Promega, Madison, Wis.), in cells treated with the Aβ peptides in DMEM without FBS. Briefly, 10,000 cells/well were plated in 96 wells plates and incubated for 24 hours with the freshly solubilized Aβ peptides. Caspase-Glo reagent was added to the cell cultures resulting in cell lysis, followed by caspase cleavage of the substrate and generation of a luminescent signal produced by the luciferase reaction. After 40 minutes incubation, the amount of caspase activity was evaluated in a plate-reading luminometer (Synergy HT Multi-Mode Microplate Reader, Biotek, Winooski, Vt.) as described in (Fossati et al., 2012b). To inhibit non-specific background activity, the proteasome inhibitor MG-132 was added to the Caspase-Glo reagent before the experiment as indicated by the manufacturer. In all cases results are expressed as fold-change compared to untreated control cells.
(§2) SHSY-5Y and Glioma cells were plated on chamber slides as above. Slides were pre-coated with Poly-D-Lysine 30 μg/ml for 2 hours for SHSY-5Y cells. […]

[4] = tested on: caspase 3/7 in neuronal SHSY-5Y cells; experiment: as above; format: cell-based, human; settings: Aβ co-incubated with MTZ at both concentrations (100, 300 μM); 24 hours
Experimental: as §1, §2

[5] = tested on: mitochondria isolated from glial cells; experiment: Mitochondrial H2O2 production (Amplex Red) after Aβ challenge; format: cell-based, human
Experimental: Production of H2O2 from isolated mitochondria was measured using Amplex Red Hydrogen Peroxide/Peroxidase Assay (Life Technologies). Cells were treated with Aβ peptides, in the presence or absence of MTZ. After 16 hours of treatment, the mitochondrial fraction was separated from nuclear and cytoplasmic fractions as previously described (Fossati et al., 2013). Protein concentration in the mitochondrial fraction was measured by BCA assay (Thermo Scientific, Rockford, Ill.), in order to include the same amount of mitochondria in each sample. Functional mitochondrial fractions were distributed in a 96 well plate with Reaction Buffer and Amplex Red solution following the manufacturer's specifications. The plate was incubated in the dark at room temperature for 30 minutes before colorimetric evaluation of the Amplex Red reaction at 560 nm.

[6] = tested on: SH-SY5Y cells; experiment: Cellular ROS (CellROX, DCFDA); format: cell-based, human; settings: Aβ42 in the presence or absence of MTZ; 24 hours
Experimental: (§3) For the last 30 minutes, the cells were incubated in the experimental medium at 37° C. with 5 μM CellROX Deep Red (Life Technologies) and 1 μg/ml Hoechst Stain (Immunochemistry Technologies, Bloomington, Minn.), as described by the manufacturer, followed by washes. Fluorescence was measured using a FlexStation 3 Multi-Mode Microplate Reader (Molecular Devices, Sunnyvale, Calif.).
10.000 cells of either SH-SY5Y or D3 cells were plated on 96-wells plates. The day after, cells were treated with the peptides and/or the drugs for the established experimental times. CellROX reagent was then added, directly, to the growing media, at a final concentration of 5 μM. 10 μg/mL of Hoescht 333258 was also added to the medium containing the CellROX reagent, in order to dye cell nuclei. Cells were incubated with both CellROX and Hoescht 333258, at 37° C., for 30 min., just before the ending time-point of the treatment. After 30 min., the medium was removed and cells were washed once in PBS 1× at room temperature. […]
Cells were plated on 96-wells microplate fluorescence microtiter (ThermoFisher, Waltham, Mass., US), and treated with peptides and/or drugs on phenol red free medium, with no serum in the case of the SH-SY5Y cells and 1% serum on the D3. […] Fluorescence was measured using a FlexStation (Molecular devices, Sunnyvalem Calif., US).

[7] = tested on: Glioma cells; experiment: Cellular ROS (CellROX); format: cell-based, human; settings: Aβ42 in the presence or absence of MTZ; 24 hours
Experimental: as §3

Structure (SMILES): CC(=O)/N=c1/sc(S(N)(=O)=O)nn1C [MTZ, methazolamide]
- DNA fragmentation after Aβ challenge ([1]; 100 μM MTZ): significantly effective at reducing DNA fragmentation
- Aβ-mediated increase in fragmented nucleosomes ([1]; 300 μM MTZ, Aβ42 10 μM): completely prevented
- Aβ aggregation species in native gels [2]: did not differ
- active-caspase 3 staining and activity of caspases 3/7 [3]: greatly suppressed
- active-caspase 3 staining and activity of caspases 3/7 [4]: greatly suppressed
- Aβ-induced increase in H2O2 production by isolated mitochondria ([5]; Example 1, Aβ with MTZ): completely reverted
- H2O2 production, drug alone ([5]; MTZ alone, untreated cells): did not have any effect
- levels of cellular ROS (CellROX) [6]: did not significantly change
- levels of cellular ROS (CellROX) [7]: did not significantly change
